Among the data in US9771376B2 (GENENTECH, INC., priority 2000, dated 2017) are IC50 values, retold here.

The target of one series is human NaV1.7 (Homo sapiens (Human), UniProt Q15858). The series can be described thus: Patch voltage clamp electrophysiology assay, NaV1.7. The class given is cell-based. As to conditions: inactivated state; HEK-293 cells stably expressing NaV1.7 with β1 subunit; held at −60 mV; read-out: Human 1.7 EP (IC50 μM).
Sequence of human NaV1.7 (Q15858 other isoform, or with tags, fused parts or gaps): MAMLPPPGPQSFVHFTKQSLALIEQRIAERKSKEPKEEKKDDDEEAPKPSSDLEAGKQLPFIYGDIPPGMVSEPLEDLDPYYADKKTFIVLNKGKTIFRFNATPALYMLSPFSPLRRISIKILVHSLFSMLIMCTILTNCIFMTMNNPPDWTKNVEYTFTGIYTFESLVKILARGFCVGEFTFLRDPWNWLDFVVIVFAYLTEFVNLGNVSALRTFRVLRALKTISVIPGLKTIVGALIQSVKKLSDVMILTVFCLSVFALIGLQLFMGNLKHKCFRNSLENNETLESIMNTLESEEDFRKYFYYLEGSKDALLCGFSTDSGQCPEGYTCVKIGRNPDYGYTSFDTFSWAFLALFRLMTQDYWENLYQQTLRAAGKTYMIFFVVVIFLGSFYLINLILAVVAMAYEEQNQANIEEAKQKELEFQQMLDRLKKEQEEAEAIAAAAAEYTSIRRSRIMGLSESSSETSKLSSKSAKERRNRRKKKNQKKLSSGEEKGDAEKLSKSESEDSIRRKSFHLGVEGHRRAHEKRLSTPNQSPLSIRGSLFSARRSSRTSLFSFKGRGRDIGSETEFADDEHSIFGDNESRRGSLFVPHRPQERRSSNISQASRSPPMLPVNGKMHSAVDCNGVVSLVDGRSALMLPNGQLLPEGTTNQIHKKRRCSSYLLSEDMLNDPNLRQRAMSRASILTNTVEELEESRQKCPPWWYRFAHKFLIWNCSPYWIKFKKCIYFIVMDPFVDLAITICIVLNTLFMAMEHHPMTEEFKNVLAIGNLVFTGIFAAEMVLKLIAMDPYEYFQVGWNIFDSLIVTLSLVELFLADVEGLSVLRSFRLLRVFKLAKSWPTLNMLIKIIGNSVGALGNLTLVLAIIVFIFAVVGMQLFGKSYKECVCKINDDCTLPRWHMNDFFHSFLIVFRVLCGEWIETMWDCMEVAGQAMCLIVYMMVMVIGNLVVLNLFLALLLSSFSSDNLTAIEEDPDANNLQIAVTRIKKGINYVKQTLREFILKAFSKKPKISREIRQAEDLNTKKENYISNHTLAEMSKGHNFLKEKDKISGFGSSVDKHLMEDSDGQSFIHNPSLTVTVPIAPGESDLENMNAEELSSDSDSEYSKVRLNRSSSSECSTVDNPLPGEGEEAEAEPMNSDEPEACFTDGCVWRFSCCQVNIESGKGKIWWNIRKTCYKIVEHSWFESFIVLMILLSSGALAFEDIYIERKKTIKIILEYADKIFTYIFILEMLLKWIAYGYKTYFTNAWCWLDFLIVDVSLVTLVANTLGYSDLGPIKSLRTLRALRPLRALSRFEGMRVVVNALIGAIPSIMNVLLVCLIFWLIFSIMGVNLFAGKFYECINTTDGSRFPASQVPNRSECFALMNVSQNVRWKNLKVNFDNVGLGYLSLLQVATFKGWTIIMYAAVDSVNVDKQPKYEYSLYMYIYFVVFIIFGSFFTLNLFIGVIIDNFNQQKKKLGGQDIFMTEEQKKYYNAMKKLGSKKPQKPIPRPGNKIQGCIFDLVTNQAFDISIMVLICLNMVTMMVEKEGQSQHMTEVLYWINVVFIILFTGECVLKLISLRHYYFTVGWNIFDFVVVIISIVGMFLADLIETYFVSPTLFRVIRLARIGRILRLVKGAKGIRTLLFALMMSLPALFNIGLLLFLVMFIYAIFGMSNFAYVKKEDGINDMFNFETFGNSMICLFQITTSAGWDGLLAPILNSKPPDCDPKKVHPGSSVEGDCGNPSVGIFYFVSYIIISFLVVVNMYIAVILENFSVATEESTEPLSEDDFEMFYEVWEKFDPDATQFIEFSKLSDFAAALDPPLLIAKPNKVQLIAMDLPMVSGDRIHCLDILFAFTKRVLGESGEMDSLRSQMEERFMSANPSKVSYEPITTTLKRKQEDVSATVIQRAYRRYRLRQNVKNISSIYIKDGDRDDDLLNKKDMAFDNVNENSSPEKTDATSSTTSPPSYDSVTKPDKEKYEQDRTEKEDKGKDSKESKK
Sequence of human NaV1.7 (Q07699 19-218 partner): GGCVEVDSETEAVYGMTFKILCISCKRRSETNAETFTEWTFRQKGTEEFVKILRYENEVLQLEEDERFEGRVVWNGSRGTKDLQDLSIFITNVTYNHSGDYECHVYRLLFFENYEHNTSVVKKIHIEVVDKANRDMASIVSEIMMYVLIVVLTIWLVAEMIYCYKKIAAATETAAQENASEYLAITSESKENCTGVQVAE
For “4-(adamantan-1-ylmethoxy)-5-chloro-N-(N,N-dimethylsulfamoyl)-2-fluorobenzamide [Example 28]”, the IC50 (in general, the midpoint of a concentration-inhibition curve) worked out at 2.25 µM. On the same count and under the same terms, then `CS(=O)(=O)NC(=O)c1cc(Cl)c(OC2[C@@H]3CC4C[C@H]2CC(Cl)(C4)C3)cc1F` (stereo partly drawn) [Example 25, 5-chloro-4-(((1R,2r,3S,5s,7s)-5-chloroadamantan-2-yl)oxy)-2-fluoro-N-(methylsulfonyl)benzamide], with 0.027 µM; and “4-(bicyclo[2.2.1]heptan-2-yloxy)-5-chloro-2-fluoro-N-(methylsulfonyl)-benzamide [Example 145]”, with 0.0036 µM; and `CC1(C)C2CCC1(C)C(Oc1cc(F)c(C(=O)NS(C)(=O)=O)cc1Cl)C2` (stereo not drawn) [Example 15, 5-chloro-2-fluoro-N-(methylsulfonyl)-4-((exo-1,7,7-trimethylbicyclo[2.2.1]heptan-2-yl)oxy)benzamide], with 0.171 µM.

Turning to “5-Chloro-2-fluoro-N-(methylsulfonyl)-4-((2,2,3,3-tetramethylcyclopropyl)-methoxy)benzamide [Example 34]”, the IC50 amounted to 0.0658 µM.

As for “5-chloro-2-fluoro-N-(methylsulfonyl)-4-((1-(trifluoromethyl)cyclopropyl)-methoxy)benzamide [Example 36]”, the IC50 was found to be 0.0077 µM.

Consider “5-chloro-4-(3-cyclohexylpropoxy)-N-(N,N-dimethylsulfamoyl)-2-fluorobenzamide [Example 82]”, for which the IC50 was 0.0416 µM.

Regarding `CN(C)S(=O)(=O)NC(=O)c1cc(Cl)c(OCC23CC4CC(CC(F)(C4)C2)C3)cc1F` [Example 86, 5-chloro-N-(N N-dimethylsulfamoyl)-2-fluoro-4-((3-fluoroadamantan-1-yl)methoxy)benzamide], the IC50 came to 0.00131 µM. The same measure, in the same setting: under “4-(2-(adamantan-1-yl)ethoxy)-3-chloro-N-(methylsulfonyl)benzamide [Example 13]” stands 0.123 µM.

Regarding `CN(C)S(=O)(=O)NC(=O)c1cc(Cl)c(OC2CCC3(CCCCC3)CC2)cc1F` [Example 79], the IC50 is 0.0854 µM. Same read-out and setting: then “4-(1-(adamantan-1-yl)ethoxy)-5-chloro-2-fluoro-N-(methylsulfonyl)benzamide [Example 19]”, with 0.0386 µM.

In the next series the target is human NaV1.5 (Homo sapiens (Human), UniProt Q14524). Put plainly: Patch voltage clamp electrophysiology assay, NaV1.5. As to conditions: read-out: Human 1.5 EP IC50 μM; inactivated state; HEK-293 cells stably expressing NaV1.5 with β1 subunit; held at −60 mV.
As for “4-(adamantan-1-ylmethoxy)-5-chloro-2-fluoro-N-(methylsulfonyl)benzamide [Example 8]”, the IC50 turned out to be 1.07 µM.
